{"source": "paper PMC6934184", "about": "“Selective DNA-PKcs inhibition extends the therapeutic index of localized radiotherapy and chemotherapy” (The Journal of Clinical Investigation, 2019)", "molecular_target": "T1, PIK3CA/PIK3R1 (p110α/p85α) (Homo sapiens, UniProt P42336)", "T1 construct": "purchased Thermo Fisher Scientific (Life Technologies) SelectScreen", "T1 sequence (P42336 whole entry)": "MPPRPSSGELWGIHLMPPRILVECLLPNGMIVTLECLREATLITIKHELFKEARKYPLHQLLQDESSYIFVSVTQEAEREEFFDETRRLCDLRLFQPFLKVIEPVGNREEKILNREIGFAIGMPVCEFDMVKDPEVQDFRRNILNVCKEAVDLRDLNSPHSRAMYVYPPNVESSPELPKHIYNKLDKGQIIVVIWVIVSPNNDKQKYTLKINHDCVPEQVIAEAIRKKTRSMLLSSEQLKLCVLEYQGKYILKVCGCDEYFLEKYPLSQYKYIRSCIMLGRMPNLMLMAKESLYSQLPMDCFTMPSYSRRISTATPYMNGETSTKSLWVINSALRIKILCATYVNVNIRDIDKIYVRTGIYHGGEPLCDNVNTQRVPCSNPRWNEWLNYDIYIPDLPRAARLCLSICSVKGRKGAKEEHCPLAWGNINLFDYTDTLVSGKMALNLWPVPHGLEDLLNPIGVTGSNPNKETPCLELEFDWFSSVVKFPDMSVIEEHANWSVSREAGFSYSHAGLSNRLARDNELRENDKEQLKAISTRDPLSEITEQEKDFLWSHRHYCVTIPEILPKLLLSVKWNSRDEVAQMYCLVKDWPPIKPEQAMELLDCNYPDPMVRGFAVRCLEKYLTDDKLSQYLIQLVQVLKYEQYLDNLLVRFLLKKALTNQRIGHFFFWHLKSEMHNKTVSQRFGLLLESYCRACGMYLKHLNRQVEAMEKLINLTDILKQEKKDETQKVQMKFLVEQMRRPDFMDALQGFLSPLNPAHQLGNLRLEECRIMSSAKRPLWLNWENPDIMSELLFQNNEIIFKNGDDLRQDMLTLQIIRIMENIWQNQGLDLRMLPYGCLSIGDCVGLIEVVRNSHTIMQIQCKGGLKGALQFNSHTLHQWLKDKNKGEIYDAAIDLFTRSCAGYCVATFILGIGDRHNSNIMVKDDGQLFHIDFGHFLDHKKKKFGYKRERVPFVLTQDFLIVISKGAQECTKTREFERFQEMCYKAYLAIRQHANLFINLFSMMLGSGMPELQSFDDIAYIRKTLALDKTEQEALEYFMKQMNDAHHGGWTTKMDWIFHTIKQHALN", "T1 sequence (P27986 whole entry partner)": "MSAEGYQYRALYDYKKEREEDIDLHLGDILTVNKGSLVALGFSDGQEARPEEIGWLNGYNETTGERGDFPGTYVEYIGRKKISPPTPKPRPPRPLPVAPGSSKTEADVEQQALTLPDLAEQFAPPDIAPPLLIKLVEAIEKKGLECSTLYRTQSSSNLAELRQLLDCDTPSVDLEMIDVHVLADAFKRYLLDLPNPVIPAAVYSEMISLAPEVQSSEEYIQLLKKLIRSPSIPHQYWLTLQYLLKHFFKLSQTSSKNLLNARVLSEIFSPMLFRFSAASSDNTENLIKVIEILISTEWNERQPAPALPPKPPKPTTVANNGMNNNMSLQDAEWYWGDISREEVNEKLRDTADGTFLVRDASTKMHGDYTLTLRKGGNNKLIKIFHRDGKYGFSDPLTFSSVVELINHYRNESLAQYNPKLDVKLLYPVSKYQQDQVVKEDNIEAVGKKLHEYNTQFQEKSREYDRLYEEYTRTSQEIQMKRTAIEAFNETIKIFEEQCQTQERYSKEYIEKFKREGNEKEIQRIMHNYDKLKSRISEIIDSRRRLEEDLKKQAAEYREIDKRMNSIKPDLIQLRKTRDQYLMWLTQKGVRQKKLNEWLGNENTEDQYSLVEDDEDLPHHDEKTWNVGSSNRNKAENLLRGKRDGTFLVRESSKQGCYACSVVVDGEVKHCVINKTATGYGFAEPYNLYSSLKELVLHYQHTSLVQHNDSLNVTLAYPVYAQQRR", "test": "SelectScreen Adapta", "format": "biochemical", "summary_of_the_method": "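Percent values come from Thermo SelectScreen profiling of NU5455, combining activity and binding assays. CSF1R was run in Z'LYTE format at Km app ATP, and CAMK1 in Adapta format with ATP listed at 10.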"}
{"smiles": "CN(C(=O)CN1CCOCC1)c1ccc2sc3c(-c4cccc5c(=O)cc(N6CC7CCC(C6)O7)oc45)cccc3c2c1", "note": "[NU5455]", "values": [{"measurement": "inhibition at 1 µM", "value": 4.2, "unit": "%"}]}
